Source: patent publication US20120039917A1, “IMMUNO[…]” (priority 2008, published 2012)

Legend:
responder T cells = test: HLA-mismatched mixed lymphocyte reaction in the presence of PXD; type: cell-based, human; conditions: 10 μM PXD on day 0, analysed day 8
Procedure: Mixed lymphocyte reactions were established using unrelated, HLA-mismatched healthy donor blood samples as donor/recipient pairs. Stimulator PBMC were γ-irradiated with 30 Gy as described previously (Zenhausen et al., 2007). Responder PBMC were washed twice in PBS, 5,6-carboxy-succinimidyl-fluorescein-ester (CSFE)-labelled (1.25 μM, Sigma) at room temperature for 5 minutes, and washed twice in PBS/10% FCS. Two hundred thousand stimulator and responder cells were added per well at a 1:1 ratio in a 96 U-well plate in T cell medium. Stimulator and responder cells were also plated alone, and all cells were cultured in a 5% CO2, 37° C. humidified incubator. Viability, CFSE fluorescence and cell surface antigen expression were determined by flow cytometry. Cells were washed twice in FACS buffer (PBS, 2% FCS), and resuspended in 50 μL/5×10^5 cells and analysed on a Becton Dickinson LSRII FACS analyser using FlowJo (TreeStar) software.
The ability of PXD to induce apoptosis in proliferating T cells was further tested in a HLA-mismatched MLR. CFSE labelled responder cells were mixed with HLA-mismatched γ-irradiated stimulator cells in the presence of 0.1% DMSO (control) and 10 μM PXD on day 0. Responder cells were analysed for proliferation (CFSEIO) and viability (AV^−) at day 8 to allow exposure of proliferating responder cells to the drug for several days.

MM-derived U226 = test: Sensitivity of cell types to PXD, viability by AV/PI staining; type: cell-based; conditions: Homo sapiens; U226, 10 μM PXD for 24 h; read-out: [% viable blasts after PXD exposure]/[% viable blasts after 0.1% DMSO exposure]
Procedure: (§1) FIG. 6. Sensitivity of different cell types to PXD. Different cell types were incubated with 10 μM PXD for 24 h and viability was determined by AV/PI staining and reported as [% viable blasts after PXD exposure]/[% viable blasts after 0.1% DMSO exposure]. Percentage values are as follows: AML-derived HL60: 16±5 and HL60p°: 54±6, ALL-derived MOLT-4: 44±4, MM-derived U226: 59±6 and RPMI 8226: 12±4, primary AML blasts: 64±5, primary ALL blasts: 23±4, normal BM: 89±5, proliferating T cells: 69±4, resting T cells: 98±6. Results from cell lines are presented as the average±SEM of at least 3 separate experiments, results from bone marrow samples are presented as the average±SD of single experiments performed in duplicate.
(§2) Cell lines were grown in RPMI-1640 medium (GIBCO-BRL, Grand Island, N.Y.) supplemented with 5% (v/v) fetal calf serum, 2 mM […], 25 μg/mL penicillin, 25 μg/mL streptomycin, 50 μg/mL uridine and 1 mM pyruvate to densities of 1-2×10^6 cells/mL (exponential stage), at 37° C. in a humidified incubator maintained at 5% CO2.
(§3) Cells were centrifuged at 1400 rpm in a Multifuge 3 s (Heraeus) for 4 min at room temperature, washed in phosphate buffered saline solution, pH 7.3 (PBS) and resuspended in Annexin V binding buffer. Small aliquots (0.5-1×10^6 cells) were transferred to 1.5 mL tubes and spun at 1400 rpm in a Multifuge 3 s (Heraeus) for 4 min. Most supernatant was removed and 5 μL PI and 5 μL FITC-labelled AV was added to the wet pellets which were vortexed. After 30 min in the dark on ice, 500 μl of AV binding buffer was added, the cells were centrifuged for 2 min at 1400 rpm, washed once with AV binding buffer and resuspended in 300 μL of AV binding buffer in FACS tubes. Staining was analyzed by flow cytometry using a Becton Dickinson Canto II FACS analyser using FlowJo (TreeStar) software.

AML-derived HL60 = test: as above; type: cell-based; conditions: Homo sapiens, HL-60; HL60, 10 μM PXD for 24 h; read-out: [% viable blasts after PXD exposure]/[% viable blasts after 0.1% DMSO exposure]
Procedure: as §1, §2, §3

HL60p° = test: as above; type: cell-based; conditions: Homo sapiens, 10 μM PXD for 24 h, read-out: [% viable blasts after PXD exposure]/[% viable blasts after 0.1% DMSO exposure]
Procedure: as §1, §2, §3

ALL-derived MOLT-4 = test: as above; type: cell-based; conditions: Homo sapiens; MOLT-4, 10 μM PXD for 24 h; read-out: [% viable blasts after PXD exposure]/[% viable blasts after 0.1% DMSO exposure]
Procedure: as §1, §2, §3

[1] = as above; type: cell-based; conditions: human, normal bone marrow cells; normal BM, 10 μM PXD for 24 h; read-out: [% viable blasts after PXD exposure]/[% viable blasts after 0.1% DMSO exposure]
Procedure: as §1
Bone marrow samples from AML (n=22) and ALL (n=8) patients, containing more than 80% blasts, were selected from the tissue bank. […] was determined by AV/PI staining as [% viable blasts after PXD treatment]/[% viable blasts in control sample].
(§4) Cells were centrifuged at 1400 rpm in a Multifuge 3 s (Heraeus) for 4 min at room temperature, washed in phosphate buffered saline solution, pH 7.3 (PBS) and resuspended in Annexin V binding buffer. […] Staining was analyzed by flow cytometry using a Becton Dickinson Canto II FACS analyser using FlowJo (TreeStar) software.

[2] = Apoptosis/viability by Annexin V/propidium iodide staining; type: cell-based, human; conditions: human, resting T cells from PBMC; resting T cells, 10 μM PXD for 24 h; read-out: [% viable blasts after PXD exposure]/[% viable blasts after 0.1% DMSO exposure]
Procedure: (§5) Immediately prior to experiments, frozen PBMC were thawed, centrifuged at 1400 rpm in a Multifuge 3 s (Heraeus) for 4 min, washed in RPMI+10% FCS and resuspended in T cell medium (RPMI+10% FCS+10 μM 2-mercaptoethanol (Sigma), 1×glutamine, 1×non-essential amino acids (Gibco)) at 2×10^6 cells/mL. Cells (2×10^5) were activated by adding 10 μg/mL anti-CD3 and 5 μg/mL anti-CD28 and 20 U/mL IL-2 per well. Cells were incubated at 37° C. in a humidified incubator maintained at 5% CO2 for 4 to 5 days until large numbers of large spherical aggregates or “bursts” of lymphocytes were observed. Activated proliferating T cells were pooled from the wells for further experiments. Resting T cells were incubated for the same length of time but in the presence of 20 U/mL IL-2 only.
as §4, with “buffer. Small aliquots (0.5-1×10^6 cells) were transferred to 1.5 mL tubes and spun at 1400 rpm in a Multifuge 3 s (Heraeus) for 4 min.” for “buffer.”
(§6) The extent of apoptosis in resting and proliferating T cells was determined after 24 h exposure to 10 μM PXD (FIG. 2) by AV/PI staining. […]

resting T cells = test: as above; type: cell-based, human; conditions: 10 μM PXD for 24 h
Procedure: as §5
as §4, with “buffer. Small aliquots (0.5-1×10^6 cells) were transferred to 1.5 mL tubes and spun at 1400 rpm in a Multifuge 3 s (Heraeus) for 4 min.” for “buffer.”
as §6

With `Oc1ccc(C2=Cc3ccc(O)cc3OC2)cc1` [PXD, Isoflav-3-en-4′,7-diol] as the compound, how does the “resting responder cell population (CD3+CFSEhiAV−)” value (responder T cells) read?
Its value is “present in both control and PXD treated MLR”.

What about the “proliferating allogeneic T cells (CD3+CFSloAV− population)” value (responder T cells; control MLR 46.5%) of the same compound?
Its value is 2%.

What about the viability at 10 µM (MM-derived U226) of the same compound?
The viability at 10 µM was 59 ± 6%.

What about the viability at 10 µM (AML-derived HL60) of the same compound?
Its viability at 10 µM is 16 ± 5%.

And the viability at 10 µM (HL60p°)?
The viability at 10 µM was 54 ± 6%.

What about the viability at 10 µM (ALL-derived MOLT-4) of the same compound?
Its viability at 10 µM is 44 ± 4%.

And the viability at 24 h, 10 μM [1]?
Its viability at 24 h, 10 μM is 89 ± 5%.

And the viability at 24 h, 10 μM [2]?
Its viability at 24 h, 10 μM is 98 ± 6%.

And the “percentage of viable resting T cells (AV/PI)” value (resting T cells)?
The value was “unaltered”.
